The subject of data set [1] is Sorbitol accumulation in sciatic nerve. Kind of data set: Inhibitory action on sorbitol accumulation in tissues of rats with experimental (streptozotocin) diabetes: sciatic nerve. It counts as in vivo, Sprague-Dawley rats. The conditions noted are these: % of control (control = 100%), measured 3 hours after final administration. The method, then:
(§1) 2) Inhibitory action on sorbitol accumulation in tissues of rats with experimental diabetes
(§2) Test Drugs: Compound of the invention and EPALRESTAT (described in Japanese Patent Unexamined Publication No. 40478/1982)
(§3) Sprague-Dawley rats (male, 6 weeks old, 5-6 per group) were fasted for 18 hours and injected with streptozotocin (SIGMA, 60 mg/kg) via the tail vein under etherization to prepare rats with diabetes.
(§4) The various compounds were orally administered at 4, 8 and 24 hours after the injection of streptozotocin, at 10 mg/kg or 30 mg/kg as a 0.5% carboxymethylcellulose suspension. During the administrations, the rats were raised under free access to feed and water and the sorbitol content in the tissues (erythrocytes, sciatic nerve, lens) was determined 3 hours after the final administration, according to the enzyme method of H. Y. Bergmeyer et al. [Methods of Enzymatic Analysis, vol. 3, 1323-1330 (1974)]with the use of SDH (sorbitol dehydrogenase) and NAD (β-nicotinamide adenine dinucleotide). The results are expressed in percent (%) relative to the value of a control group administered with 0.5% carboxymethylcellulose solution (solvent) instead of the compound, which was taken as 100%.

Data set [2] concerns Sorbitol accumulation in lens. Kind of data set: Inhibitory action on sorbitol accumulation in tissues of rats with experimental (streptozotocin) diabetes: lens. It counts as in vivo, Sprague-Dawley rats. The note with it: % of control (control = 100%), measured 3 hours after final administration. As for the experimental part:
as §1, §2, §3, §4

Data set [3] relates to Sorbitol accumulation in erythrocytes. Kind of data set: Inhibitory action on sorbitol accumulation in tissues of rats with experimental (streptozotocin) diabetes: erythrocytes. It counts as in vivo, Sprague-Dawley rats. The note with it: % of control (control = 100%), measured 3 hours after final administration. As for the experimental part: as §1, §2, §3, §4
The subject of a further data set is ICR mice. The note with it: mouse, in vivo. As for the experimental part:
The acute toxicity (safety) of the compound of the present invention was confirmed by the following method.
Normal ICR mice (male, 7 weeks old, 5 per group) were fasted for 18 hours and the compound (300 mg/kg) of Example 37 was orally administered as a 0.5% carboxymethylcellulose suspension. To the control group, a 0.5% carboxymethylcellulos e solution alone was orally administered and observation was continued for 14 days thereafter, during which period the mice were allowed to take feed and water freely.

A further data set has as its target T1, aldose reductase (Sus scrofa, UniProt P80276).
T1 construct: swine lenses freeze-stored at -80° C. were homogenized with distilled water; from tissue; host or cells: swine lens
Kind of data set: Aldose reductase inhibitory action (swine lens enzyme, dl-glyceraldehyde substrate, NADPH, absorbance change at 340 nm). The format is biochemical. The conditions noted are these: 3 mM dl-glyceraldehyde, 0.1 mM NADPH, pH 6.2, 25° C., 2 minutes, read-out: IC50 (concentration inhibiting the aldose reductase activity by 50%). The method, then:
That is, swine lenses freeze-stored at -80° C. were homogenized with distilled water and cetrifuged at 10,000 G for 15 minutes. The supernatant was prepared into a 40% ammonium sulfate solution and subjected to cetrifugation at 10,000 G for 10 minutes.
The activity of aldose reductase was determined by the above-mentioned method of S. Hayman et al. That is, the above-mentioned enzyme solution (25 μl) and a drug solution (25 μl) dissolved in 1% DMSO at various concentrations were added to a 40 mM phosphate buffer (200 μl, pH 6.2) containing final concentrations of 0.4 M lithium sulfate, 0.1 mM NADPH (reduced type nicotinamide adenine dinucleotide phosphate) and 3 mM dl-glyceraldehyde as a substrate.
The test drug number indicates the example number to be mentioned later.

Setting [4] is: 30 mg/kg oral at 4, 8 and 24 hours after streptozotocin.
[5] abbreviates: 10 mg/kg oral at 4, 8 and 24 hours after streptozotocin, ** p<0.01 (Tukey).
Setting [6] is: 10 mg/kg oral at 4, 8 and 24 hours after streptozotocin, * p<0.05, ** p<0.01 (Tukey).

Each structure is given as a SMILES string.

Regarding `CC(/C=C1\SC(=S)N(CC(=O)O)C1=O)=C\c1ccccc1` [EPALRESTAT, reference compound], the “Sorbitol accumulation, sciatic nerve” value in data set [1] (setting [4]) is listed as 99.9%. For the same compound, the “Sorbitol accumulation, lens” value in data set [2] (setting [4]) worked out at 89.1%. Besides, the “Sorbitol accumulation, erythrocytes” value in data set [3] (setting [4]) turned out to be 66.5%.

In the case of `O=C(O)CCC(=O)N(Cc1nc2c(F)c(F)cc(F)c2s1)c1ccc(Cl)cc1` [Example 37, N-(4-chlorophenyl)-N-[(4,5,7-trifluorobenzothiazol-2-yl)methyl]succinamic acid], the “Sorbitol accumulation, sciatic nerve” value in data set [1] (setting [5]) is 17.8%. Besides, in the data set with ICR mice, the “death among the mice” value was “no case of death”. Further, the “Sorbitol accumulation, lens” value in data set [2] (setting [6]) is reported as 55.4%. Moreover, in data set [3] (setting [5]), the “Sorbitol accumulation, erythrocytes” value is recorded as 16.4%.

On to `O=C(O)CCC(=O)N(Cc1nc2c(Cl)c(Cl)ccc2s1)c1ccc(Cl)cc1` [Example 39, N-(4-chlorophenyl)-N-[(4,5-dichlorobenzothiazol-2-yl)methyl]succinamic acid], for which the IC50 on aldose reductase was 13 nM.

Regarding `Cc1ccc(N(Cc2nc3c(F)c(F)cc(F)c3s2)C(=O)CCC(=O)O)cc1` [Example 41, N-[(4,5,7-trifluorobenzothiazol-2-yl)methyl]-N-(4-methylphenyl)succinamic acid], the IC50 on aldose reductase came out at 13 nM.

For `O=C(O)CCC(=O)N(Cc1nc2c(F)c(F)cc(F)c2s1)c1ccccc1Cl` [Example 48, N-(2-chlorophenyl)-N-[(4,5,7-trifluorobenzothiazol-2-yl)methyl]succinamic acid], in data set [1] (setting [5]), the “Sorbitol accumulation, sciatic nerve” value amounted to 45.7%. In addition, the “Sorbitol accumulation, lens” value in data set [2] (setting [6]) worked out at 56.6%. For the same compound, the “Sorbitol accumulation, erythrocytes” value in data set [3] (setting [5]) is 32.8%.

Regarding `COc1ccc(N(Cc2nc3c(F)c(F)cc(F)c3s2)C(=O)CCC(=O)O)cc1` [Example 55, N-[(4,5,7-trifluorobenzothiazol-2-yl)methyl]-N-(4-methoxyphenyl)succinamic acid], in data set [1] (setting [5]), the “Sorbitol accumulation, sciatic nerve” value worked out at 27.2%. Moreover, the “Sorbitol accumulation, lens” value in data set [2] (setting [6]) came out at 74.4%. In addition, in data set [3] (setting [5]), the “Sorbitol accumulation, erythrocytes” value is listed as 2.5%.

Consider `O=C(O)CCC(=O)N(Cc1nc2c(F)c(F)cc(F)c2s1)c1ccccc1` [Example 65, N-[(4,5,7-trifluorobenzothiazol-2-yl)methyl]-N-phenylsuccinamic acid], for which the “Sorbitol accumulation, sciatic nerve” value in data set [1] (setting [5]) is 4.0%. At aldose reductase, the IC50 was determined as 15 nM. In addition, the “Sorbitol accumulation, lens” value in data set [2] (setting [6]) was 71.8%. Also, in data set [3] (setting [5]), the “Sorbitol accumulation, erythrocytes” value was 6.4%.

As to `CSc1ccccc1N(Cc1nc2c(F)c(F)cc(F)c2s1)C(=O)CCC(=O)O` [Example 72, N-[(4,5,7-trifluorobenzothiazol-2-yl)methyl]-N-(2-methylthiophenyl)succinamic acid], the “Sorbitol accumulation, sciatic nerve” value in data set [1] (setting [5]) stood at 10.8%. Moreover, the IC50 on aldose reductase worked out at 13 nM. In data set [2] (setting [6]), the “Sorbitol accumulation, lens” value was 50.0%. Besides, the “Sorbitol accumulation, erythrocytes” value in data set [3] (setting [5]) is listed as 19.2%.

The values above are taken from patent US5532257A, “Benzothiazole compound, production thereof and use thereof” (Senju Pharmaceutical Co., Ltd, priority 1993, dated 1996).
